The source of these data is the supplement of paper PMC3068080.

In one series the test system is TGFBR2 mRNA. Nature of the series: remaining TGFBR2 mRNA relative to control siRNA (off-target knock-down) (fraction of control); quantification method: branched DNA; higher = less knock-down. How it is done: (§1)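 Screen-hit siRNA duplexes (19-mer plus 3' dTdT overhang) were transiently transfected into HaCaT cells in 12-well plates. After 48 h, TGFBR1 and TGFBR2 mRNA were quantified by branched DNA assay (QuantiGene, normalised to HPRT1) or by SYBR qPCR (normalised to HPRT1/SMAD4). Values are the remaining mRNA relative to control-siRNA-transfected cells; 1-2 biological replicates.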

In a further series the test system is TGFBR1 mRNA. Nature of the series: remaining TGFBR1 mRNA relative to control siRNA (off-target knock-down) (fraction of control); quantification method: branched DNA; higher = less knock-down. How it is done:
as §1

Consider UCCAUGGAUGCAGAAGUCCTT, for which the “remaining TGFBR2 mRNA” value with TGFBR2 mRNA came out at 0.56. In addition, the “remaining TGFBR1 mRNA” value in the series with TGFBR1 mRNA is 0.96.
In the same order, the values of UCCCGUACUGGUUCUGGGGTT are 0.81 and 1.1.
Take UCCUGGAAGUUUGACGUCCTT: the “remaining TGFBR2 mRNA” value with TGFBR2 mRNA came out at 1.41. Moreover, in the series on TGFBR1 mRNA, the “remaining TGFBR1 mRNA” value amounted to 0.88.
For UCCUUGGUCCAUUAGGAGATT, in that order: 0.22 and 0.61.
For UCCUUGGUCUCAUCUGCCUTT, in that order: 0.43 and 1.05.
With UCCUUGGUGUAUUCUAACATT, in the series on TGFBR2 mRNA, the “remaining TGFBR2 mRNA” value is 0.42. The “remaining TGFBR1 mRNA” value in the series on TGFBR1 mRNA turned out to be 0.93.
On to UCCUUGUCCUUGGACAGUGTT, for which the “remaining TGFBR2 mRNA” value with TGFBR2 mRNA stood at 0.24. The “remaining TGFBR1 mRNA” value with TGFBR1 mRNA worked out at 1.14.
In the same order, the values of UCUACCCAGAACUCCACGATT are 1.01 and 0.14.
In the same order, the values of UCUCAUUUACCCUUUGGGGTT are 0.33 and 0.67.
UCUCGGAGGCAGUUCCAGCTT: in the series on TGFBR2 mRNA, the “remaining TGFBR2 mRNA” value was found to be 0.82. Moreover, the “remaining TGFBR1 mRNA” value in the series with TGFBR1 mRNA was 0.86.
For UCUGCAACGUAGAGGUUAUTT, in that order: 0.79 and 0.22.
For UCUGGUCUCAGCCAUUGAATT, in that order: 1.08 and 0.26.
In the same order, the values of UCUUGGCUUUGACACCGAGTT are 0.39 and 0.48.
In the case of UGAAGACAGUCCUAUGGACTT, in the series with TGFBR2 mRNA, the “remaining TGFBR2 mRNA” value amounted to 0.97. For the same sequence, in the series on TGFBR1 mRNA, the “remaining TGFBR1 mRNA” value stood at 0.42.
Turning to UGAAUAACCCUCUGGACAGTT, the “remaining TGFBR2 mRNA” value in the series with TGFBR2 mRNA worked out at 0.83. In the series with TGFBR1 mRNA, the “remaining TGFBR1 mRNA” value turned out to be 0.45.
In the same order, the values of UGAUAGCACCAACACAAAGTT are 0.74 and 0.44.
In the same order, the values of UGAUGUUGAUCUGGGGCACTT are 0.54 and 0.55.
Regarding UGAUGUUGUCUUGUCUGGUTT, the “remaining TGFBR2 mRNA” value in the series on TGFBR2 mRNA was 0.42. In addition, the “remaining TGFBR1 mRNA” value in the series with TGFBR1 mRNA worked out at 0.44.
In the same order, the values of UGCAGUGAUAAAGGCUACATT are 0.67 and 0.34.
With UGCAUUGGCUCCCACUUCATT, in the series with TGFBR2 mRNA, the “remaining TGFBR2 mRNA” value stood at 0.33. Also, the “remaining TGFBR1 mRNA” value in the series with TGFBR1 mRNA was determined as 0.26.
Consider UGCGUUUACGGUUCACACGTT, for which the “remaining TGFBR2 mRNA” value with TGFBR2 mRNA stood at 0.6. The “remaining TGFBR1 mRNA” value in the series with TGFBR1 mRNA was 0.69.
UGCUUAUCUCAUCUGAAGCTT: in the series on TGFBR2 mRNA, the “remaining TGFBR2 mRNA” value turned out to be 0.28. Further, in the series with TGFBR1 mRNA, the “remaining TGFBR1 mRNA” value stood at 0.93.
With UGCUUGAGUAGUGCUAGUUTT, in the series on TGFBR2 mRNA, the “remaining TGFBR2 mRNA” value came to 0.58. In the series on TGFBR1 mRNA, the “remaining TGFBR1 mRNA” value stood at 0.71.
In the same order, the values of UGGAAGACGCUUUAAAGGCTT are 0.48 and 0.85.
In the same order, the values of UGGACAUGGAGUGGCCUGATT are 0.55 and 1.09.
For UGGAGCUGCACAUAUUCCUTT, in that order: 0.27 and 1.2.
Consider UGGCCGUCAAUGUAUUUCUTT, for which the “remaining TGFBR2 mRNA” value in the series with TGFBR2 mRNA was 0.7. Also, the “remaining TGFBR1 mRNA” value with TGFBR1 mRNA came to 1.25.
For UGGGCUUUUCUCUUCUCUCTT, in that order: 1.43 and 1.47.
For UGGUGAAGAGGCACUUAACTT, in that order: 1.06 and 0.69.
On to UGUACUUCUCCUUGGAGAATT, for which, in the series on TGFBR2 mRNA, the “remaining TGFBR2 mRNA” value was found to be 0.64. Besides, the “remaining TGFBR1 mRNA” value with TGFBR1 mRNA was determined as 0.8.
For UGUAGUGAAUUCCAAAGAGTT, in that order: 0.41 and 0.47.
For UGUCCUGGUCACACUUCCATT, in that order: 0.5 and 0.23.
In the same order, the values of UGUGCUUGGUCACGGACACTT are 0.27 and 1.86.
In the case of UGUGUAGCACAUGGGACACTT, in the series on TGFBR2 mRNA, the “remaining TGFBR2 mRNA” value amounted to 0.73. In the series with TGFBR1 mRNA, the “remaining TGFBR1 mRNA” value worked out at 1.05.
In the same order, the values of UGUUCUUGAAGUCCCGCAGTT are 0.78 and 1.69.
As to UUAUAAGCCAAAGUGCGUCTT, the “remaining TGFBR2 mRNA” value in the series with TGFBR2 mRNA is 1.66. Moreover, in the series with TGFBR1 mRNA, the “remaining TGFBR1 mRNA” value turned out to be 0.6.
For UUAUCCCAUAUGAGCUCAGTT, in that order: 0.5 and 1.33.
As for UUAUCCUGAUCACGUCUAGTT, the “remaining TGFBR2 mRNA” value in the series on TGFBR2 mRNA came to 0.14. Further, in the series on TGFBR1 mRNA, the “remaining TGFBR1 mRNA” value was found to be 0.65.
UUAUUGGGCAAAAUCCGGGTT: in the series on TGFBR2 mRNA, the “remaining TGFBR2 mRNA” value was found to be 0.72. Also, the “remaining TGFBR1 mRNA” value with TGFBR1 mRNA came out at 0.88.
